Reference: publication PMC3172288, “RLIP76, a Glutathione-Conjugate Transporter, Plays a Major Role in the Pathogenesis of Metabolic Syndrome” (PLoS ONE, 2011)

Experiments:
RLIP76 [1] = biological target: T1, RLIP76 (Homo sapiens, UniProt Q15311); assay: ATP-dependent uptake of 3H-GSHNE into RLIP76 proteoliposomes; assay type: biochemical; conditions: 10 µM, labelled compound, 37 °C
T1 construct: gene RALBP1; purified recombinant RLIP76 reconstituted in proteoliposomes
T1 sequence (Q15311 2-655): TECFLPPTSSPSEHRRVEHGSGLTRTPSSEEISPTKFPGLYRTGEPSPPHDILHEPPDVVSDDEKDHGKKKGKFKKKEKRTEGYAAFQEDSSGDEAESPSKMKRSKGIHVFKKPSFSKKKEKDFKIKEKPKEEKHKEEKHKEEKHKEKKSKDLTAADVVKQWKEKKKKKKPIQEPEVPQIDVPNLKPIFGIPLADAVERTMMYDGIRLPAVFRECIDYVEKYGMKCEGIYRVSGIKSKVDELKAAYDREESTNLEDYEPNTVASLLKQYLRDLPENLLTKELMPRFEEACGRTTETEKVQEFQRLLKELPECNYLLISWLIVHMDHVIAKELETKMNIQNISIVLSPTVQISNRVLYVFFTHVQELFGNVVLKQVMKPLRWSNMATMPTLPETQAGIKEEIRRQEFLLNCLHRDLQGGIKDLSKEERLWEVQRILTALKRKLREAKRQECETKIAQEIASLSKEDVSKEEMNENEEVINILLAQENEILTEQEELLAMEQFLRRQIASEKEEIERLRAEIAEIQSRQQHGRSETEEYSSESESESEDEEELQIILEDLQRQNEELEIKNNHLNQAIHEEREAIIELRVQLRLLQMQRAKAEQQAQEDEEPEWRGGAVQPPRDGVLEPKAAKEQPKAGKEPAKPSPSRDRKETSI

RLIP76 [2] = biological target: T1, RLIP76; assay: inhibition of ATP-dependent 3H-GSHNE uptake into RLIP76 proteoliposomes; assay type: biochemical; conditions: 10 µM 3H-GSHNE, 0-100 µM drug, 30 min incubation at 37 °C

ATP-dependent uptake of 3H-GSHNE into RLIP76 proteoliposomes (RLIP76 [1]) | SMILES | inhibition of ATP-dependent 3H-GSHNE uptake into RLIP76 proteoliposomes (RLIP76 [2])
ATP-dependent uptake of ^3H-GSHNE | CCCCCC(O)C(CC=O)SC[C@H](NC(=O)CC[C@H](N)C(=O)O)C(=O)NCC(=O)O (stereo partly drawn) [3H-GSHNE] | 
 | CN(C)C(=N)NC(=N)N [metformin] | metformin inhibits only half of the transport activity
 | CN(CCOc1ccc(CC2SC(=O)NC2=O)cc1)c1ccccn1 (stereo not drawn) [rosiglitazone] | Inhibition of the transport activity of purified recombinant human RLIP76 towards physiological substrate
